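Grown in 96-well plates, cells were treated for 48 hours with each compound at five concentrations. Insufficient inhibition: endpoint recorded as highest concentration tested. GI50 marks 50% less growth. Definition used: TGI = concentration required for complete inhibition of growth.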
Experiments:
Test in all cases: DTP human tumour cell line panel, 48 h
SN12C renal = tested on: SN12C renal
A549 NSCLC = tested on: A549 NSCLC
NCI-H460 lung = tested on: NCI-H460 lung
HS 578T breast = tested on: HS 578T breast
IGROV1 ovarian = tested on: IGROV1 ovarian
NCI-H23 lung = tested on: NCI-H23 lung
LOX IMVI melanoma = tested on: LOX IMVI melanoma
RPMI-8226 leukemia = tested on: RPMI-8226 leukemia
K-562 leukemia = tested on: K-562 leukemia
NCI/ADR-RES ovarian = tested on: NCI/ADR-RES ovarian
HCT-15 colon = tested on: HCT-15 colon
EKVX NSCLC = tested on: EKVX NSCLC
ACHN renal = tested on: ACHN renal
NCI-H226 lung = tested on: NCI-H226 lung
TK-10 renal = tested on: TK-10 renal
OVCAR-5 ovarian = tested on: OVCAR-5 ovarian
MCF7 breast = tested on: MCF7 breast
M14 melanoma = tested on: M14 melanoma
UO-31 renal = tested on: UO-31 renal
HCT-116 colon = tested on: HCT-116 colon
COLO 205 colon = tested on: COLO 205 colon
OVCAR-3 ovarian = tested on: OVCAR-3 ovarian
SK-MEL-2 melanoma = tested on: SK-MEL-2 melanoma
SNB-75 CNS = tested on: SNB-75 CNS
KM12 colon = tested on: KM12 colon
UACC-62 melanoma = tested on: UACC-62 melanoma
SF-295 CNS = tested on: SF-295 CNS
SK-MEL-5 melanoma = tested on: SK-MEL-5 melanoma
NCI-H522 lung = tested on: NCI-H522 lung
MDA-MB-435 = tested on: MDA-MB-435
HT29 colon = tested on: HT29 colon
HL-60(TB) leukemia = tested on: HL-60(TB) leukemia
SR leukemia = tested on: SR leukemia
UACC-257 melanoma = tested on: UACC-257 melanoma
SNB-19 CNS = tested on: SNB-19 CNS
U251 CNS = tested on: U251 CNS
OVCAR-4 ovarian = tested on: OVCAR-4 ovarian
SF-268 CNS = tested on: SF-268 CNS
OVCAR-8 ovarian = tested on: OVCAR-8 ovarian
HOP-92 NSCLC = tested on: HOP-92 NSCLC
MOLT-4 leukemia = tested on: MOLT-4 leukemia
A498 renal = tested on: A498 renal
MDA-MB-231 breast = tested on: MDA-MB-231 breast
SW-620 colon = tested on: SW-620 colon
T-47D breast = tested on: T-47D breast
CAKI-1 renal = tested on: CAKI-1 renal
SF-539 CNS = tested on: SF-539 CNS
HCC-2998 colon = tested on: HCC-2998 colon
DU-145 prostate = tested on: DU-145 prostate
CCRF-CEM leukemia = tested on: CCRF-CEM leukemia
HOP-62 NSCLC = tested on: HOP-62 NSCLC
PC-3 prostate = tested on: PC-3 prostate
SK-MEL-28 melanoma = tested on: SK-MEL-28 melanoma
RXF 393 renal = tested on: RXF 393 renal

O=C(NCCNc1nccc(-c2c(-c3cccc(O)c3)nc3sccn23)n1)c1ccccc1 showed a GI50 (SN12C renal) of 9.04 µM, a TGI (SN12C renal) of 38.4 µM and a GI50 (A549 NSCLC) of 9.21 µM. It also gave a TGI (A549 NSCLC) of 46.5 µM, a GI50 (NCI-H460 lung) of 10.4 µM and a TGI (NCI-H460 lung) of 27.5 µM. The GI50 (HS 578T breast) was 4.86 µM, the TGI (HS 578T breast) was 38.3 µM and the GI50 (IGROV1 ovarian) was 3.61 µM. It also gave a TGI (IGROV1 ovarian) of 50.9 µM, a GI50 (NCI-H23 lung) of 10 µM and a TGI (NCI-H23 lung) of 30.7 µM. The GI50 (LOX IMVI melanoma) was 3.22 µM, the TGI (LOX IMVI melanoma) was 17.8 µM and the GI50 (RPMI-8226 leukemia) was 6.97 µM. For the same compound, the TGI (RPMI-8226 leukemia) was 25.3 µM, the GI50 (K-562 leukemia) was 9.11 µM and the TGI (K-562 leukemia) was over 100 µM. It also gave a GI50 (NCI/ADR-RES ovarian) of 34.8 µM, a TGI (NCI/ADR-RES ovarian) of over 100 µM and a GI50 (HCT-15 colon) of 18.8 µM. The TGI (HCT-15 colon) was 62.2 µM, the GI50 (EKVX NSCLC) was 25 µM and the TGI (EKVX NSCLC) was over 100 µM. The GI50 (ACHN renal) was 6.43 µM, the TGI (ACHN renal) was 34.9 µM and the GI50 (NCI-H226 lung) was 7.95 µM. The TGI (NCI-H226 lung) was 45.3 µM, the GI50 (TK-10 renal) was 11.7 µM and the TGI (TK-10 renal) was 37.1 µM. The GI50 (OVCAR-5 ovarian) was 18.3 µM, the TGI (OVCAR-5 ovarian) was 61.8 µM and the GI50 (MCF7 breast) was 3.24 µM. The TGI (MCF7 breast) was 14.9 µM, the GI50 (M14 melanoma) was 0.434 µM and the TGI (M14 melanoma) was 12.3 µM. It also gave a GI50 (UO-31 renal) of 12.2 µM, a TGI (UO-31 renal) of 88.7 µM and a GI50 (HCT-116 colon) of 4.82 µM. The TGI (HCT-116 colon) was 17.5 µM, the GI50 (COLO 205 colon) was 3.99 µM and the TGI (COLO 205 colon) was 23.8 µM. For the same compound, the GI50 (OVCAR-3 ovarian) was 12.3 µM, the TGI (OVCAR-3 ovarian) was 64.8 µM and the GI50 (SK-MEL-2 melanoma) was 2.94 µM. It also gave a TGI (SK-MEL-2 melanoma) of 12.9 µM, a GI50 (SNB-75 CNS) of 3.27 µM and a TGI (SNB-75 CNS) of 28.1 µM. It also gave a GI50 (KM12 colon) of 12.1 µM, a TGI (KM12 colon) of 28.5 µM and a GI50 (UACC-62 melanoma) of 0.211 µM. The TGI (UACC-62 melanoma) was 1.37 µM, the GI50 (SF-295 CNS) was 12.9 µM and the TGI (SF-295 CNS) was 38 µM. For the same compound, the GI50 (SK-MEL-5 melanoma) was 4.15 µM, the TGI (SK-MEL-5 melanoma) was 17.5 µM and the GI50 (NCI-H522 lung) was 5.76 µM. The TGI (NCI-H522 lung) was 25.5 µM, the GI50 (MDA-MB-435) was 0.578 µM and the TGI (MDA-MB-435) was 12.8 µM. The GI50 (HT29 colon) was 6.8 µM, the TGI (HT29 colon) was 38.3 µM and the GI50 (HL-60(TB) leukemia) was 10.2 µM. For the same compound, the TGI (HL-60(TB) leukemia) was 29.6 µM, the GI50 (SR leukemia) was 5.68 µM and the TGI (SR leukemia) was 50 µM. For the same compound, the GI50 (UACC-257 melanoma) was 0.489 µM, the TGI (UACC-257 melanoma) was 18.5 µM and the GI50 (SNB-19 CNS) was 29.4 µM. For the same compound, the TGI (SNB-19 CNS) was over 100 µM, the GI50 (U251 CNS) was 17.9 µM and the TGI (U251 CNS) was over 100 µM. It also gave a GI50 (OVCAR-4 ovarian) of 13.9 µM, a TGI (OVCAR-4 ovarian) of 84.6 µM and a GI50 (SF-268 CNS) of 15.5 µM. The TGI (SF-268 CNS) was 87 µM, the GI50 (OVCAR-8 ovarian) was 11.1 µM and the TGI (OVCAR-8 ovarian) was 78.8 µM. It also gave a GI50 (HOP-92 NSCLC) of 2.22 µM, a TGI (HOP-92 NSCLC) of 33.2 µM and a GI50 (MOLT-4 leukemia) of 13.5 µM. For the same compound, the TGI (MOLT-4 leukemia) was 74.2 µM, the GI50 (A498 renal) was 3.68 µM and the TGI (A498 renal) was 19.3 µM. For the same compound, the GI50 (MDA-MB-231 breast) was 7.05 µM, the TGI (MDA-MB-231 breast) was 31.5 µM and the GI50 (SW-620 colon) was 18 µM. The TGI (SW-620 colon) was 79.5 µM, the GI50 (T-47D breast) was 11 µM and the TGI (T-47D breast) was 49 µM. For the same compound, the GI50 (CAKI-1 renal) was 5.92 µM, the TGI (CAKI-1 renal) was 29.6 µM and the GI50 (SF-539 CNS) was 11.3 µM. The TGI (SF-539 CNS) was 36.8 µM, the GI50 (HCC-2998 colon) was 13.8 µM and the TGI (HCC-2998 colon) was 31.2 µM. It also gave a GI50 (DU-145 prostate) of 19.7 µM, a TGI (DU-145 prostate) of 68.7 µM and a GI50 (CCRF-CEM leukemia) of 3.38 µM. The TGI (CCRF-CEM leukemia) was 34.1 µM, the GI50 (HOP-62 NSCLC) was 23.5 µM and the TGI (HOP-62 NSCLC) was 94.2 µM. The GI50 (PC-3 prostate) was 11.9 µM, the TGI (PC-3 prostate) was 65.7 µM and the GI50 (SK-MEL-28 melanoma) was 0.336 µM. It also gave a TGI (SK-MEL-28 melanoma) of 99.1 µM, a GI50 (RXF 393 renal) of 4.14 µM and a TGI (RXF 393 renal) of 22.2 µM.
